# In PMC7370100, “In Vitro Assessment of the Genotoxic Hazard of Novel Hydroxamic Acid- and Benzamide-Type Histone Deacetylase Inhibitors (HDACi)” (International Journal of Molecular Sciences, 2020):
# Read-outs that look alike come from different tables or passages of the source.
# Tests used:
# [1] = tested on: SH-SY5Y neuroblastoma cells; assay: Alamar blue assay (cell viability), SH-SY5Y cells; type: cell-based, human
# Method: (§1) V79 hamster lung cells, which are recommended in the OECD toxicology guidelines for hazard identification (i.e., cytotoxicity and genotoxicity) of chemicals, were purchased from the German Collection of Microorganisms and Cell Cultures (DSMZ, Braunschweig, Germany). They were cultured in Dulbecco´s modified Eagle medium and Ham´s F12 medium (DMEM/F12) (PromoCell, Heidelberg, Germany) containing 10% fetal calf serum at 37 °C in a humidified atmosphere containing 5% CO2. VC8 hamster cells were defective in DNA double-strand break (DSB) repair by homologous recombination (HR) due to the lack of functional BRCA2 protein [69, 70]. VC8 cells were provided by B. Kaina (Institute of Toxicology, Mainz, Germany). Nucleotide excision repair defective XPA and CSB deficient cells were also provided by B. Kaina and were described before. They were grown in DMEM containing 10% fetal calf serum. Human neuroblastoma cells (IMR-32 and SH-SY5Y) were purchased from the German Collection of Microorganisms and Cell Cultures (DSMZ, Braunschweig, Germany) and were used as a model of malignant cells. They were grown in DMEM or RPMI (Roswell park memorial institute) medium, respectively, containing 10% fetal calf serum. If not stated otherwise, HDACi were added to the exponentially growing cells and analyses were performed 6 h to 72 h later.
# (§2) Cell viability was determined using the Alamar blue assay, which reflected the mitochondrial activity. Viable cells were characterized by an effective mitochondrial metabolization of the non-fluorescent dye resazurin (Sigma, Steinheim, Germany) to fluorescent resorufin (excitation: 535 nm, emission: 590 nm). Relative viability in the untreated control was set to 100%. In addition, the Neutral red assay, which measures the integrity of lysosomal membranes, was used to monitor cytotoxicity. To this end, cells were incubated with the Neutral red solution (0.01%) in an atmosphere containing 5% CO2 for 90 min before they were fixed (1% formaldehyde/1% CaCl2). Afterwards, the Neutral red that was taken up by the cells was extracted (50% ethanol/1% of acetic acid, 15 min at room temperature (RT)) and absorbance (540 nm) was measured. If not stated otherwise, data are shown as the mean ± standard deviation (SD) of two to three independent experiments each performed in quadruplicate. Approximate IC50 (~IC50, see Supplementary Table S1) were calculated from the corresponding dose-response curves.
# V79 hamster lung cells = assay: Alamar blue assay (cell viability), V79 cells; type: cell-based; conditions: for less cytotoxic to non-malignant V79 cells than to malignant neuroblastoma cells (IC50 based): selection criterion, IC50 of Table S1
# Method: as §1, §2
# [2] = tested on: SH-SY5Y neuroblastoma cells; assay: Neutral red assay (cytotoxicity), SH-SY5Y cells; type: cell-based, human
# Method: as §1, §2
# [3] = tested on: VC8 hamster cells (BRCA1/2 defect); assay: Viability of DSB repair defective VC8 versus wild-type V79 cells (Alamar blue); type: cell-based; conditions: summary grade, V79 versus VC8; further: key: −: no effect; 0: weak effect; +: moderate effect; ++: strong effect; +++: very strong effect as compared to untreated controls
# Method: as §1, §2
# V79 cells [4] = assay: Caspase-3/-7 cleavage by Western blot (apoptosis); type: cell-based, hamster; conditions: for activation of caspase-3 and -7: 10 µM, 24 h, V79, in words; for Apoptosis: summary grade, calculated on the basis of caspase-3,-7 cleavage and SubG1 population, V79; on apoptosis: key: −: no effect; 0: weak effect; +: moderate effect; ++: strong effect; +++: very strong effect as compared to untreated controls
# Method: The activation of the DDR was investigated by Western blot analysis. To this end, total cell extracts were obtained by lysing an equal number of cells in Roti®-Load buffer (Carl Roth GmbH (Karlsruhe, Germany)) (5 min, RT). After sonication (EpiShear™ Probe sonicator, Active Motif, La Hulpe, Belgium), proteins were denatured by heating (5 min, 95 °C) and separated by SDS-PAGE (6% or 12.5% gel). Proteins were transferred onto a nitrocellulose membrane (GE Healthcare, Little Chalfont, UK) via the Protean Mini Cell System (BioRad (München, Germany)). The membrane was blocked with 5% non-fat milk in TBS/0.1% Tween 20 (MERCK, Darmstadt, Germany) (2 h, RT) and incubated with the corresponding primary antibody (1:1000, overnight, 4 °C). After washing with TBS/0.1% Tween 20, the secondary (peroxidase-conjugated) antibody was added (1:2000, 2 h, RT). The Fusion FX7 imaging system (PeqLab, Erlangen, Germany) was used for visualization of the bound antibodies. The following primary antibodies were used: Anti-Ser15 phosphorylated protein 53 (p-p53), anti-Talin-1, anti-Ser 345 checkpoint kinase 1 (p-Chk1), anti-cleaved caspase 3 and 7 (Cell Signaling, Beverly, MA, USA), anti-Ser824 phosphorylated Krüppel-associated box domain (KRAB)-associated protein-1 (p-Kap1), anti-Ser1981 phosphorylated ataxia telangiectasia mutated (pATM) and anti-Thr68 phosphorylated checkpoint kinase-2 (p-Chk2) (both Abcam, Cambridge, MA, USA), anti-Ser139 phosphorylated histone H2AX (γH2AX, Millipore, Billerica, MA, USA), and anti-β-actin (Santa Cruz, CA, USA). As secondary antibodies, horseradish peroxidase-conjugated secondary antibodies goat anti-mouse IgG and mouse anti-rabbit IgG (Rockland, Limerick, PA, USA) (2 h, RT) were used.
# V79 cells [5] = assay: Nuclear γH2AX foci and pan-staining (immunocytochemistry); type: cell-based, hamster; conditions: for > 5 < 30 Foci [%] / Pan-Stained [%] / ≤ 5 Foci [%] (cells with γH2AX foci) / ≥ 30 Foci [%] / formation of nuclear γH2AX foci: 24 h; for > 5 < 30 Foci [%] / Pan-Stained [%] / ≤ 5 Foci [%] (cells with γH2AX foci) / ≥ 30 Foci [%] / gH2AX Foci / gH2AX Pan-Stain: V79; for formation of nuclear γH2AX foci: V79, in words; for gH2AX Foci / gH2AX Pan-Stain: summary grade; on gH2AX Foci: key: −: no effect; 0: weak effect; +: moderate effect; ++: strong effect; +++: very strong effect as compared to untreated controls; on gH2AX Pan-Stain: key: −: no effect; 0: weak effect; +: moderate effect; ++: strong effect; +++: very strong effect as compared to untreated controls
# Method: The frequency of nuclear foci formed by S139 phosphorylated H2AX (γH2AX foci), which is a surrogate marker of DNA damage, especially DNA double-strand breaks (DSBs), was assayed by immunocytochemistry-based analysis. […] The appearance of nuclear 53BP1 foci, which is another marker of DSBs, was also determined by immunocytochemistry. Cells were fixed with 4% formaldehyde in phosphate-buffered saline (PBS) (MERCK, Darmstadt, Germany) (15 min, RT) followed by incubation with ice-cold methanol (≥20 min, −20 °C). After blocking (1 h, RT, blocking solution: 5% BSA (MERCK, Darmstadt, Germany) in PBS/0.3% Triton X-100 (Sigma, Steinheim, Germany)), incubation with γH2AX antibody and 53BP1 antibody was performed (1:500, overnight, 4 °C). After incubation with the secondary fluorescence-labeled antibody (1:500, 1 h, RT, in the dark), cells were mounted in Vectashield (Vector Laboratories (Burlingame, CA, USA)) containing DAPI. The number of nuclear γH2AX and 53BP1 foci was scored (Olympus BX43 fluorescence microscope). Only nuclei with distinct foci were evaluated and γH2AX pan-stained nuclei were excluded from the foci analyses. Data are shown as the mean ± SEM of three independent experiments with ≥50 nuclei analyzed per experimental condition.
# [6] = 24 h, approximate IC50, read-out: IC50 - 24 h Treatment, SH-SY5Y
# [7] = 72 h, approximate IC50, read-out: IC50 - 72 h Treatment, SH-SY5Y
# [8] = V79, 24 h after drug treatment (values match Alamar blue data of Table S1), read-out: Viability (IC50) 24 h
# [9] = V79, 72 h after drug treatment (values match Alamar blue data of Table S1), read-out: Viability (IC50) 72 h
# [10] = Homo sapiens, SH-SY5Y, 24 h, approximate IC50, read-out: IC50 - 24 h Treatment, SH-SY5Y
# [11] = Homo sapiens, SH-SY5Y, 72 h, approximate IC50, read-out: IC50 - 72 h Treatment, SH-SY5Y
SMILES,"IC50 [1, 6]","IC50 [1, 7]",IC50 (V79 hamster lung cells; [8]),IC50 (V79 hamster lung cells; [9]),less cytotoxic to non-malignant V79 cells than to malignant neuroblastoma cells (IC50 based) (V79 hamster lung cells),"IC50 [2, 6]",DSB Repair def. Cells [3],activation of caspase-3 and -7 (V79 cells [4]),Apoptosis (V79 cells [4]),> 5 < 30 Foci [%] (V79 cells [5]; 10 µM),Pan-Stained [%] (V79 cells [5]; 10 µM),≤ 5 Foci [%] (cells with γH2AX foci) (V79 cells [5]; 10 µM),≥ 30 Foci [%] (V79 cells [5]; 10 µM),> 5 < 30 Foci [%] (V79 cells [5]; 50 µM),Pan-Stained [%] (V79 cells [5]; 50 µM),≤ 5 Foci [%] (cells with γH2AX foci) (V79 cells [5]; 50 µM),≥ 30 Foci [%] (V79 cells [5]; 50 µM),formation of nuclear γH2AX foci (V79 cells [5]),gH2AX Foci (V79 cells [5]),gH2AX Pan-Stain (V79 cells [5]),further results
CN(C)c1ccc(C(=O)N(CC(=O)NCc2ccccc2)Cc2ccc(C(=O)NO)cc2)cc1 [DDK137],50 µM,0.9 µM,33 µM,11 µM,≥ 10 fold,> 50 µM,+,activation of caspase-3 and -7,+,40.1%,0.0%,56.4%,3.5%,36.8%,14.1%,31.3%,17.8%,stimulate the formation of γH2AX foci only at a high dose of 50 µM,+,+,"IC50 [2, 7]: 1 µM; > 5 < 30 Foci [%] (V79 cells [5]; 2 µM): 38.5%; Pan-Stained [%] (V79 cells [5]; 2 µM): 0.0%; ≤ 5 Foci [%] (cells with γH2AX foci) (V79 cells [5]; 2 µM): 60.8%; ≥ 30 Foci [%] (V79 cells [5]; 2 µM): 0.7%"
"Nc1ccccc1NC(=O)c1ccc(CNC(=O)OCc2cccnc2)cc1 [Entinostat, entinostat, reference compound]",,,> 50 µM,7 µM,,,+,only activated caspase-7 but not caspase-3,0,43.6%,0.4%,45.2%,10.8%,39.4%,3.2%,45.3%,12.2%,relatively low number of γH2AX foci,+,+,"IC50 [1, 10]: > 50 µM; IC50 [1, 11]: 8 µM; IC50 [2, 10]: > 50 µM; IC50 [2, 11]: 9 µM; > 5 < 30 Foci [%] (V79 cells [5]; 100 µM): 47.2%; Pan-Stained [%] (V79 cells [5]; 100 µM): 4.6%; ≤ 5 Foci [%] (cells with γH2AX foci) (V79 cells [5]; 100 µM): 41.7%; ≥ 30 Foci [%] (V79 cells [5]; 100 µM): 6.5%"
Nc1ccc(F)cc1NC(=O)c1ccc(CONC(=O)C=Cc2cccnc2)cc1 [MPK77],33 µM,17 µM,> 50 µM,50 µM,≥ 10 fold,> 50 µM,+,nor did they activate the executor caspases-3 and -7,−,49.9%,0.0%,49.6%,0.6%,41.5%,0.0%,58.6%,0.0%,relatively low number of γH2AX foci,+,0,"IC50 [2, 7]: 23 µM; > 5 < 30 Foci [%] (V79 cells [5]; 100 µM): 47.9%; Pan-Stained [%] (V79 cells [5]; 100 µM): 10.2%; ≤ 5 Foci [%] (cells with γH2AX foci) (V79 cells [5]; 100 µM): 35.5%; ≥ 30 Foci [%] (V79 cells [5]; 100 µM): 6.5%"
"O=C(CCCCCCC(=O)Nc1ccccc1)NO [Vorinostat, vorinostat, reference compound]",,,,,,,++,activation of caspase-3 and -7,++,18.5%,3.2%,75.9%,2.4%,34.2%,26.7%,23.6%,15.6%,,+,++,"IC50 [1, 10]: 33 µM; > 5 < 30 Foci [%] (V79 cells [5]; 2 µM): 54.7%; Pan-Stained [%] (V79 cells [5]; 2 µM): 0.0%; ≤ 5 Foci [%] (cells with γH2AX foci) (V79 cells [5]; 2 µM): 39.3%; ≥ 30 Foci [%] (V79 cells [5]; 2 µM): 6.0%"
